The results in this text go back to patent US7078059B2, “Treatment of bone diseases” (Shire Holdings AG, priority 2000, dated 2006).

The subject of experiment [1] is mouse bone marrow derived osteoprogenitor cells. In words: In vitro osteoblast differentiation assay (cellular alkaline phosphatase). Format: cell-based. Particulars: LA number = ng/ml lanthanum; for Effect on osteoblast differentiation, in words: lanthanum (III) ion = 100-15000 ng/ml, 17-estradiol 10^−10 M; for Relative specific activities of intracellular alkaline phosphatase, Mean ± SD / Relative specific activities of intracellular alkaline phosphatase, replicates 1-8 / Relative specific activities of intracellular alkaline phosphatase, replicates 1-4 / Relative specific activities or intracellular alkaline phosphatase, Mean ± SD / Relative specific activities or intracellular alkaline phosphatase, replicates 1-6: relative to mean of baseline group, 8 days; for Relative specific activities of intracellular alkaline phosphatase, Mean ± SD / Relative specific activities of intracellular alkaline phosphatase, replicates 1-8 / Relative specific activities of intracellular alkaline phosphatase, replicates 1-4 / Relative specific activities or intracellular alkaline phosphatase, Mean ± SD / Relative specific activities or intracellular alkaline phosphatase, replicates 1-6 / Combined results on osteoblast differentiation (relative specific ALP activity), Mean ± SD: Control = Baseline+10^−10 M 17-estradiol; for Relative specific activities or intracellular alkaline phosphatase, Mean ± SD / Relative specific activities or intracellular alkaline phosphatase, replicates 1-6: second osteoblast differentiation assay; for Combined results on osteoblast differentiation (relative specific ALP activity), Mean ± SD: tables 8-10 combined, number 18. The text has this: We have established a culture model in which mouse bone marrow derived osteoprogenitor cells first proliferate and then differentiate to osteoblasts capable of forming mineralized bone nodules (Qu et al. 1998, Qu et al. 1999). We confirmed this by following the expression of several markers of the osteoblastic phenotype and by studying the morphology of cultures at light and electron microscopic level. […] Thus, this culture system fulfills requirements of an in vitro model useful for studying differentiation of osteoprogenitor cells into bone synthesizing osteoblasts. […] Animals were killed by cervical dislocation. Both femora were removed and the soft tissues were detached aseptically. Metaphyses from both ends were cut off and bone marrow cells were collected by flushing the diaphysis with culture medium: phenol red-free-α-modified essential medium (α-MEM (Gibco BRL, Paisley, UK)). […] The cells were cultured for 6 days and half of the media […] days. […] Cells were washed with warm PBS and adherent cells were detached using trypsin-EDTA. […] The test substances were added at the beginning of the secondary culture without estrogen, and every time when the medium was changed. The number of osteoblasts formed was determined by measuring cellular alkaline phosphatase (ALP) activity in the culture. […] Louis, Mo., USA), and overnight freezing. ALP activity was determined colorimetrically using p-nitrophenylphosphate as substrate at pH 9.7 and determining the optical density at 405 nm. In parallel, protein contents of the wells were determined by the BIO-RAD protein assay, and the specific ALP activity is expressed as units/mg protein. […] Osteoblast differentiation was determined by measuring cellular alkaline phosphatase (ALP) activities and total protein amounts from cell lysates. The ALP activities were divided with the corresponding protein amounts to obtain specific activities of ALP. The results are shown as relative specific activities obtained by dividing each individual value with the mean value of the baseline group.

The subject of the next experiment is mature osteoblasts. In words: In vitro bone formation assay (calcium deposition into bone nodules). Format: cell-based, mouse. Particulars: LA number = ng/ml lanthanum; for Effect on bone formation activity of mature osteoblasts, in words: lanthanum (III) / lanthanum (III) ion = all concentrations tested, 100 to 15,000 ng/ml, 17-estradiol 10^−10M; for Calcium deposition, Mean ± SD / Calcium deposition, replicates 1-6 / Calcium deposition, replicates 1-4 / Calcium deposition, replicates 1-8: calcium released from bone nodules after HCl extraction; for Calcium deposition, Mean ± SD / Calcium deposition, replicates 1-6 / Calcium deposition, replicates 1-4 / Calcium deposition, replicates 1-8 / Combined results on bone formation activity of mature osteoblasts (calcium released), Mean ± SD: Control = Baseline+10^−10M 17β-estradiol; for Combined results on bone formation activity of mature osteoblasts (calcium released), Mean ± SD: tables 13 and 14 combined, number 14. As for the experimental part: The activity of mature osteoblasts can be determined by quantifying their ability to form mineralized bone matrix. This is done by demineralizing the formed bone matrix, and determining the amount of calcium released. Thus, this culture system fulfills requirements of an in vitro model useful for studying the bone formation activity of mature osteoblasts. […] At the end of the culture, the amount of calcium deposited during the culture period was determined, and the amount of bone formation (calcium deposition) calculated. […] Extracts of 50 μl were complexed with 1 ml determined o-cresol-phthalein-complexon. The colorimetric reaction was determined at 570 nm in a spectrophotometer. Absolute calcium concentrations were determined by comparison with a calibrated standard provided by the vendor. In this study, the effect of lanthanum carbonate on bone formation was tested. […] The amount of bone formation was determined by measuring the amount of calcium deposited into bone nodules formed by mature osteoblasts. The results are shown as the amount of calcium released (mmol/L) from the bone nodules after HCl extraction. The baseline values are too low to show the results using relative amounts as was done in the other assays.

Setting [2] is: first osteoblast differentiation assay.
The mark [3] stands for this setting: preliminary osteoblast differentiation assay.
[4] abbreviates: preliminary bone formation assay.

Values joined by “and” are separate entries in the source; they are usually repeats but may differ in a detail not shown here. Equal entries are not always repeated. “Also recorded” adds a separate entry of the source.

As for `O.O.O.O.O=C([O-])[O-].O=C([O-])[O-].O=C([O-])[O-].[La+3].[La+3]` [LA 1000, lanthanum carbonate tetrahydrate], in experiment [1], the “Effect on osteoblast differentiation, in words” value was “No significant response; also recorded: do not decrease the formulation of osteoblasts”; the “Relative specific activities or intracellular alkaline phosphatase, Mean ± SD” value came to 0.88 ± 0.21; the “Relative specific activities or intracellular alkaline phosphatase, replicates 1-6” value was 0.73 and 0.71 and 1.19 and 0.81 and 0.72 and 1.09; the “Combined results on osteoblast differentiation (relative specific ALP activity), Mean ± SD” value was determined as 0.92 ± 0.17. Moreover, in experiment [1] (setting [2]), the “Relative specific activities of intracellular alkaline phosphatase, Mean ± SD” value worked out at 0.94 ± 0.14; the “Relative specific activities of intracellular alkaline phosphatase, replicates 1-8” value (“Relative specific activities … replicates 1-8” below) is 1.01 and 0.78 and 0.81. Further, in experiment [1] (setting [3]), the “Relative specific activities of intracellular alkaline phosphatase, Mean ± SD” value is recorded as 0.94 ± 0.19; the “Relative specific activities of intracellular alkaline phosphatase, replicates 1-4” value (“Relative specific activities … replicates 1-4” for short) was 0.69 and 1.13 and 0.92 and 1.01. In addition, in the experiment with mature osteoblasts, the “Effect on bone formation activity of mature osteoblasts, in words” value (from here on “Effect on bone formation activity”) was “stimulate bone formation” and the “Combined results on bone formation activity of mature osteoblasts (calcium released), Mean ± SD” value (“Combined results … (calcium released), Mean ± SD” for short) came out at 1.20 ± 0.45 mmol/L. For the same molecule, in the experiment with mature osteoblasts (first bone formation assay), the “Calcium deposition, Mean ± SD” value came to 1.29 ± 0.28 mmol/L; the “Calcium deposition, replicates 1-6” value is 0.95 mmol/L and 1.66 mmol/L and 1.47 mmol/L and 1.41 mmol/L and 1.00 mmol/L and 1.25 mmol/L. In addition, in the experiment on mature osteoblasts (setting [4]), the “Calcium deposition, Mean ± SD” value is 0.07 ± 0.05 mmol/L; the “Calcium deposition, replicates 1-4” value is 0.10 mmol/L and 0 mmol/L and 0.11 mmol/L and 0.05 mmol/L. Further, in the experiment on mature osteoblasts (second bone formation assay), the “Calcium deposition, Mean ± SD” value is given as 1.14 ± 0.55(* mmol/L; the “Calcium deposition, replicates 1-8” value is 1.76 mmol/L and 0.02 mmol/L and 1.52 mmol/L.

With `O.O.O.O.O=C([O-])[O-].O=C([O-])[O-].O=C([O-])[O-].[La+3].[La+3]` [LA 5000, lanthanum carbonate tetrahydrate], in experiment [1], the “Effect on osteoblast differentiation, in words” value was “inhibited”; the “Relative specific activities or intracellular alkaline phosphatase, Mean ± SD” value is on record as 0.41 ± 0.10(***); the “Relative specific activities or intracellular alkaline phosphatase, replicates 1-6” value is 0.31 and 0.51 (2×) and 0.49 and 0.28 and 0.40; the “Combined results on osteoblast differentiation (relative specific ALP activity), Mean ± SD” value was 0.48 ± 0.09 (***). Further, in experiment [1] (setting [2]), the “Relative specific activities of intracellular alkaline phosphatase, Mean ± SD” value is 0.53 ± 0.06(***); the “Relative specific activities … replicates 1-8” value is 0.54 and 0.59 and 0.55. Further, in experiment [1] (setting [3]), the “Relative specific activities of intracellular alkaline phosphatase, Mean ± SD” value is 0.47 ± 0.03(***); the “Relative specific activities … replicates 1-4” value was 0.42 and 0.46 and 0.50 and 0.48. Besides, in the experiment on mature osteoblasts, the “Effect on bone formation activity” value is “best responses” and the “Combined results … (calcium released), Mean ± SD” value worked out at 1.47 ± 0.16 mmol/L. Besides, in the experiment on mature osteoblasts (first bone formation assay), the “Calcium deposition, Mean ± SD” value worked out at 1.46 ± 0.10 mmol/L; the “Calcium deposition, replicates 1-6” value was 1.31 mmol/L and 1.55 mmol/L and 1.56 mmol/L and 1.52 mmol/L and 1.40 mmol/L and 1.39 mmol/L. In the experiment with mature osteoblasts (setting [4]), the “Calcium deposition, Mean ± SD” value amounted to 1.06 ± 0.66 mmol/L; the “Calcium deposition, replicates 1-4” value was 0.59 mmol/L and 1.64 mmol/L and 0.39 mmol/L and 1.62 mmol/L. Besides, in the experiment on mature osteoblasts (second bone formation assay), the “Calcium deposition, Mean ± SD” value is 1.47 ± 0.20(* mmol/L; the “Calcium deposition, replicates 1-8” value is 1.08 mmol/L and 1.63 mmol/L and 1.30 mmol/L.

As to `O.O.O.O.O=C([O-])[O-].O=C([O-])[O-].O=C([O-])[O-].[La+3].[La+3]` [LA 100, lanthanum carbonate tetrahydrate], in experiment [1], the “Effect on osteoblast differentiation, in words” value is “activated osteoblast differentiation significantly; also recorded: activate both bone formation and osteoblast differentiation”; the “Relative specific activities or intracellular alkaline phosphatase, Mean ± SD” value is 1.14 ± 0.22; the “Relative specific activities or intracellular alkaline phosphatase, replicates 1-6” value is 0.91 and 0.94 and 1.34 and 1.20 and 1.00 and 1.43; the “Combined results on osteoblast differentiation (relative specific ALP activity), Mean ± SD” value is listed as 1.10 ± 0.18 (*). In addition, in experiment [1] (setting [2]), the “Relative specific activities of intracellular alkaline phosphatase, Mean ± SD” value came to 1.05 ± 0.17; the “Relative specific activities … replicates 1-8” value was 0.95 and 1.04 and 0.98. Moreover, in experiment [1] (setting [3]), the “Relative specific activities of intracellular alkaline phosphatase, Mean ± SD” value is recorded as 1.15 ± 0.13; the “Relative specific activities … replicates 1-4” value is 0.98 and 1.29 and 1.19 and 1.12. Moreover, in the experiment with mature osteoblasts, the “Effect on bone formation activity” value was “activate both bone formation and osteoblast differentiation”; the “Combined results … (calcium released), Mean ± SD” value is 0.09 ± 0.10 mmol/L. For the same molecule, in the experiment with mature osteoblasts (first bone formation assay), the “Calcium deposition, Mean ± SD” value was determined as 0.11 ± 0.11 mmol/L; the “Calcium deposition, replicates 1-6” value is 0.04 mmol/L and 0.17 mmol/L and 0.01 mmol/L and 0.27 mmol/L and 0 mmol/L and 0.14 mmol/L. Besides, in the experiment on mature osteoblasts (setting [4]), the “Calcium deposition, Mean ± SD” value turned out to be 0.00 ± 0.00 mmol/L and the “Calcium deposition, replicates 1-4” value came out at 0 mmol/L. Besides, in the experiment with mature osteoblasts (second bone formation assay), the “Calcium deposition, Mean ± SD” value is on record as 0.08 ± 0.11 mmol/L; the “Calcium deposition, replicates 1-8” value was 0 mmol/L (4×) and 0.28 mmol/L and 0.14 mmol/L.

`O.O.O.O.O=C([O-])[O-].O=C([O-])[O-].O=C([O-])[O-].[La+3].[La+3]` [LA 500, lanthanum carbonate tetrahydrate]: in experiment [1], the “Effect on osteoblast differentiation, in words” value is given as “No significant response; also recorded: do not decrease the formulation of osteoblasts”; the “Relative specific activities or intracellular alkaline phosphatase, Mean ± SD” value is on record as 0.93 ± 0.14; the “Relative specific activities or intracellular alkaline phosphatase, replicates 1-6” value is 0.88 and 0.89 and 1.10 and 1.09 and 0.75 and 0.90; the “Combined results on osteoblast differentiation (relative specific ALP activity), Mean ± SD” value is recorded as 0.94 ± 0.13. Moreover, in experiment [1] (setting [2]), the “Relative specific activities of intracellular alkaline phosphatase, Mean ± SD” value came out at 0.90 ± 0.14; the “Relative specific activities … replicates 1-8” value was 0.95 and 0.96 and 0.62. In experiment [1] (setting [3]), the “Relative specific activities of intracellular alkaline phosphatase, Mean ± SD” value was determined as 1.01 ± 0.07; the “Relative specific activities … replicates 1-4” value is 0.96 and 0.98 and 0.99 and 1.11. Besides, in the experiment with mature osteoblasts, the “Effect on bone formation activity” value is “stimulate bone formation” and the “Combined results … (calcium released), Mean ± SD” value is 0.68 ± 0.56 mmol/L. In the experiment with mature osteoblasts (first bone formation assay), the “Calcium deposition, Mean ± SD” value was determined as 0.77 ± 0.54 mmol/L; the “Calcium deposition, replicates 1-6” value was 0.44 mmol/L and 0.15 mmol/L and 1.32 mmol/L and 0.27 mmol/L and 1.31 mmol/L and 1.10 mmol/L. In the experiment on mature osteoblasts (setting [4]), the “Calcium deposition, Mean ± SD” value was found to be 0.02 ± 0.05 mmol/L; the “Calcium deposition, replicates 1-4” value was 0 mmol/L (3×) and 0.09 mmol/L. Besides, in the experiment with mature osteoblasts (second bone formation assay), the “Calcium deposition, Mean ± SD” value is 0.62 ± 0.61 mmol/L; the “Calcium deposition, replicates 1-8” value was 0 mmol/L and 0.02 mmol/L and 0.46 mmol/L and 1.17 mmol/L.
